Consider five compounds from patent publication US12428433B2, “Fluorine-containing heterocyclic derivatives with macrocyclic structure and use thereof” (ScinnoHub Pharmaceutical Co., Ltd, priority 2019, dated 2025).

Like-named read-outs stand apart in the source and are kept apart here.

Data set [1] in a line: Stability test in liver microsomes, human. Type of data set: in vitro ADME. To be noted: for half-life at 1 μM: 0.5 mg/mL. On the procedure: (§1) A stability of the compound of the present application in liver microsomes of human, rat and mouse was measured.
(§2) 3.1 A buffer and a liver microsome were prepared into an incubation solution according to the following table:
(§3) 3.2 The following two experiments were carried out respectively: a) incubation system added with coenzyme factor NADPH: 25 μL of NADPH (10 mM) was added into an incubation solution (mainly comprising a liver microsome and a phosphate buffer), so that final concentrations of the liver microsome and the NADPH were 0.5 mg/mL and […] respectively; and b) incubation system without coenzyme factor NADPH: 25 μL of phosphate buffer (100 mM) was added into the incubation solution, so that the final concentration of the liver microsome was 0.5 mg/mL. The incubation systems above were preheated at 37° C. for 10 minutes respectively.
(§4) 3.3 2.5 μL of positive control compound or a tested compound solution (100 μM) was added into the incubation systems described in “step 3.2” above respectively for reaction, and the positive control compound was verapamil (purchased from Sigma), so that a final concentration of the tested compound of the present application or the positive control compound was 1 μM. The incubation solution added with the compound was incubated in water at 37° C. in batches.
(§5) 3.4 30 μL of aliquot was taken from a reaction solution after 0.5 minute, 5 minutes, 15 minutes, 30 minutes and 45 minutes respectively, and the reaction was terminated by adding 5 times volume of cold acetonitrile containing 200 nM caffeine and 100 nM tolbutamide. The aliquot was centrifuged at a gravity acceleration of 3,220 g for 40 minutes, and 100 μL of supernatant was mixed with 100 μL of ultrapure water, and then used for LC-MS/MS analysis.
(§6) A peak area was determined by an extracted ion chromatogram. A slope value k was determined by linear regression of a remaining percentage of a parent drug relative to […] an incubation time curve.
(§7) In-vitro half-life periods (t1/2) were respectively calculated and determined according to the slope value, and an average value of the in-vitro half-life periods was converted into an in-vitro intrinsic clearance rate (CLint, represented by μL/min/mg protein).
A general note: Liver microsomes are vesicles of endoplasmic reticulum, rich in cytochrome P450 enzymes.

The target of a further data set is TRKa (Homo sapiens (Human), UniProt P04629). In words: Kinase inhibitory activity (Caliper mobility shift), TRKa. Type of data set: biochemical. On the procedure:
(§8) […] (Shanghai) Co., Ltd. was commissioned to complete the testing example. […] 3.1 A tested compound was accurately weighed and dissolved in 100% DMSO to prepare into a 10 mM solution. […] 3.2.3 A kinase solution of 2.5 times final concentration was prepared with 1×kinase buffer. […] 3.2.5 The reaction plate was shaken and mixed evenly, and then incubated at room temperature for 10 minutes. 3.2.6 Mixed solutions of ATP and kinase substrate 22 of 5 times and 3 times final concentrations were prepared with 1×kinase buffer. 3.2.7 15 μL of mixed solution of ATP and substrate of 5 times or 3 times final concentration was added. 3.2.8 The 384-well plate was centrifuged at 1,000 rpm for 30 seconds, shaken and mixed evenly, and then incubated at room temperature for corresponding time. 3.2.9 The kinase reaction was terminated. 3.2.10 A conversion rate was read by the microplate reader Caliper EZ Reader. Calculation Formula Inhibition rate %=(conversion rate % maximum-conversion rate % sample)/(conversion rate % maximum-conversion rate % minimum)×100 wherein the conversion rate % sample was: a reading number of a conversion rate of a sample; the conversion rate % minimum was: an average value of the negative control well, which represented a reading number of a conversion rate without an enzyme activity well; and the conversion rate % maximum was: an average value of a ratio of the positive control well, which represented a reading number of a conversion rate without a compound inhibition well.

The nature of data set [2]: Stability test in liver microsomes, mouse. Type of data set: in vitro ADME. To be noted: for half-life at 1 μM: 0.5 mg/mL. As to the method: as §1, §2, §3, §4, §5, §6, §7
A further data set has as its target TRKA(G595R) (Homo sapiens (Human), UniProt P04629, G595R). In words: Kinase inhibitory activity (Caliper mobility shift), TRKA(G595R). It is filed as biochemical. On the procedure:
as §8

A further data set concerns Ba/F3 LMNA-NTRK1-G595R. In words: In-vitro cell viability (CTG), NTRK mutant cells. Type of data set: cell-based. The conditions noted are these: Mus musculus, read-out: Ba/F3 LMNA-NTRK1-G595R IC50. As to the method:
(§9) Hefei Precedo Biomedical Technology Co., Ltd. was commissioned to complete the testing example, and NTRK mutant cells used were constructed by this company.
(§10) Inhibitory effects of the compound of the present application on growth of three NTRK mutant cells (Ba/F3 LMNA-NTRK1-G667C, Ba/F3 EVT6-NTRK3-G623R and Ba/F3 LMNA-NTRK1-G595R) were measured.
(§11) Cells in logarithmic growth phase were collected and counted by a blood platelet counter, a cell concentration was adjusted to 3 to 6×10^4 cell/mL, 90 μL of cell suspension was added into a 96-well plate, and cells in the 96-well plate were cultured at 37° C. under 5% CO2 and 95% humidity overnight.
(§12) The to-be-tested compound was prepared into a 10 times drug solution in a medium containing 1% DMSO, with […] and the drug solution was diluted by 3 times in sequence to obtain drug solutions with 9 concentrations in total. […] 10 μL of prepared drug solution was added into each well of the 96-well plate in which the cells were inoculated. Then, 90 μL of medium containing 1% DMSO was added to obtain a drug solution with a highest concentration of 1 μM, and the drug solution was diluted by 3 times in sequence to obtain drug solutions with 9 concentrations in total. A final concentration of DMSO in each well was 0.1%, and three multiple wells were provided for the drug of each concentration. The cells in the 96-well plate in which the drug has been added were cultured at 37° C. under 5% CO2 and 95% humidity for 72 hours, and then subjected to CTG analysis.
(§13) An equal volume of CTG solution was added into each well, the 96-well plate was placed at room temperature for 20 minutes to stabilize a luminescence signal, and a luminescence value was read.
(§14) Data was analyzed by GraphPad Prism 7.0 software, and fitted by nonlinear S-curve regression to obtain a dose-effect curve, from which an IC50 value was calculated. Cell survival rate (%)=(Lum to-be-tested drug−Lum medium control)/(Lum cell control−Lum medium control)×100%.

The subject of the next data set is Ba/F3 LMNA-NTRK1-G667C. As to the kind of experiment: In-vitro cell viability (CTG), NTRK mutant cells. Type of data set: cell-based. The conditions noted are these: Mus musculus, read-out: Ba/F3 LMNA-NTRK1-G667C IC50. On the procedure:
as §9, §10, §11, §12, §13, §14

A further data set has as its system Ba/F3 EVT6-NTRK3-G623R. As to the kind of experiment: In-vitro cell viability (CTG), NTRK mutant cells. It is filed as cell-based. To be noted: Mus musculus, read-out: Ba/F3 EVT6-NTRK3-G623R IC50. As to the method: as §9, §10, §11, §12, §13, §14
In the next data set the target is TRKC(G623R) (Homo sapiens (Human), UniProt Q16288, G623R). As to the kind of experiment: Kinase inhibitory activity (Caliper mobility shift), TRKC(G623R). Type of data set: biochemical. As to the method:
Sundia Meditech (Shanghai) Co., Ltd. was commissioned to complete the testing example.
3.1 A tested compound was accurately weighed and dissolved in 100% DMSO to prepare into a 10 mM solution.
250 nL of the compound of 100 times final concentration was transferred to a reaction plate OptiPlate-384F by a dispenser Echo 550.
3.2.3 A kinase solution of 2.5 times final concentration was prepared with 1×kinase buffer.
3.2.4 10 μL of kinase solution of 2.5 times final concentration was added into a compound well and a positive control well respectively; and 10 μL of 1×kinase buffer was added into a negative control well.
3.2.5 The reaction plate was shaken and mixed evenly, and then incubated at room temperature for 10 minutes.
3.2.6 Mixed solutions of ATP and kinase substrate 22 of 5 times and 3 times final concentrations were prepared with 1×kinase buffer.
3.2.7 15 μL of mixed solution of ATP and substrate of 5 times or 3 times final concentration was added.
3.2.8 The 384-well plate was centrifuged at 1,000 rpm for 30 seconds, shaken and mixed evenly, and then incubated at room temperature for corresponding time.
3.2.9 The kinase reaction was terminated.
3.2.10 A conversion rate was read by the microplate reader Caliper EZ Reader.
Calculation Formula Inhibition rate %=(conversion rate % maximum−conversion rate % sample)/(conversion rate % maximum−conversion rate % minimum)×100
wherein the conversion rate % sample was: a reading number of a conversion rate of a sample; the conversion rate % minimum was: an average value of the negative control well, which represented a reading number of a conversion rate without an enzyme activity well; and the conversion rate % maximum was: an average value of a ratio of the positive control well, which represented a reading number of a conversion rate without a compound inhibition well.
Fitting of dose-effect curve: a log value of concentration was used as an X axis, a percentage inhibition rate was used as a Y axis, and the dose-effect curve was fitted by a log (inhibitor) vs. response-variable slope of the analysis software GraphPad Prism 5 (four-parameter model fitting), so as to obtain an IC50 value of each compound on enzyme activity.

The nature of data set [3]: Stability test in liver microsomes, rat. The conditions noted are these: for half-life at 1 μM: 0.5 mg/mL. Type of data set: in vitro ADME. On the procedure: as §1, §2, §3, §4, §5, §6, §7

TRKa, sequence (P04629 33-796): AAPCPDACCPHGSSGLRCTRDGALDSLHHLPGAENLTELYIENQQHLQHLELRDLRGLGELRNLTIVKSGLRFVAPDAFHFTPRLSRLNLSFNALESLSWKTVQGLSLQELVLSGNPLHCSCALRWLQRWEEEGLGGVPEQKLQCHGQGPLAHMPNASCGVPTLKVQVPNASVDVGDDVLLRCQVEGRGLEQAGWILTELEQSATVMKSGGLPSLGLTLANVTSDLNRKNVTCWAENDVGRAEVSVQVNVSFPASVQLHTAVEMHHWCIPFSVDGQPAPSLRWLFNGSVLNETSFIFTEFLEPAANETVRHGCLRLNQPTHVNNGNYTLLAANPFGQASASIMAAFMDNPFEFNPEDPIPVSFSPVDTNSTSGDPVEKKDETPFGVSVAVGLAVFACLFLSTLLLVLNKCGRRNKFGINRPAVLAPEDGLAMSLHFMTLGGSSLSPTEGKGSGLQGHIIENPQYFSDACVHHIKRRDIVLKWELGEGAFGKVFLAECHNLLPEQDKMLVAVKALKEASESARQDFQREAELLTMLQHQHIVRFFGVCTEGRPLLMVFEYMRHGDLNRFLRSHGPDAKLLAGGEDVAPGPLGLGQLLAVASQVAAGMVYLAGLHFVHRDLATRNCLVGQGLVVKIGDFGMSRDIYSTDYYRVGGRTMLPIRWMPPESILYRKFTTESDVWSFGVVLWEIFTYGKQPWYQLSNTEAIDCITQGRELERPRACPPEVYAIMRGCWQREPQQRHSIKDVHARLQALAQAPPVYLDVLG
TRKA(G595R), sequence (P04629 33-796 G595R): as the sequence (P04629 33-796) above, with G563R counted along it
TRKC(G623R), sequence (Q16288 32-839 G623R): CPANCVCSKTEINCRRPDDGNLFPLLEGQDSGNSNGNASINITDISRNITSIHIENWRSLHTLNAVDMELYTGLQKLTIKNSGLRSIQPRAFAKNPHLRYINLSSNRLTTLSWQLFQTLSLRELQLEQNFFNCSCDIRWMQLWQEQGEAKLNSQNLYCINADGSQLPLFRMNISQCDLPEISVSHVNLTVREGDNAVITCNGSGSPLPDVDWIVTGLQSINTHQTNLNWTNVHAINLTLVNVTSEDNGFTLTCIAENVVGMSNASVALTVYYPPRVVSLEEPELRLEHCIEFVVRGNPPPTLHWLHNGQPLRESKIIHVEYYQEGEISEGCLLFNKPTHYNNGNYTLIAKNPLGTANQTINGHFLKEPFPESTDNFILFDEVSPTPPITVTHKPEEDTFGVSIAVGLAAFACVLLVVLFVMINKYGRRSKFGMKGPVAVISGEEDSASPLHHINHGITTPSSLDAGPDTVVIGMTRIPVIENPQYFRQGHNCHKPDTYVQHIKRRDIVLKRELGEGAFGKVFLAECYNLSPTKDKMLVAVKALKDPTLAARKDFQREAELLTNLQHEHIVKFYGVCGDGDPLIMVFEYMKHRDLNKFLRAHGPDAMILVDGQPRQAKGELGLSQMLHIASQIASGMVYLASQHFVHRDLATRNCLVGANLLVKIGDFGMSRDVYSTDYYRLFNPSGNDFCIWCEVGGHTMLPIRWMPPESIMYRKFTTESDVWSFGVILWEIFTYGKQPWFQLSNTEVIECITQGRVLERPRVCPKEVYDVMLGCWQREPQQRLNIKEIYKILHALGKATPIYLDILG

The term microsomal CLint denotes a measure of how fast metabolising enzymes remove a compound, apart from limits set by blood flow. Read a low microsomal CLint as greater metabolic stability. One may read the half-life as the time needed for the level to fall by half in the phase considered. As for `C[C@@H]1CCc2ncc(F)cc2[C@H]2CCCN2c2nc3c(cnn3cc2F)C(=O)N1` [Example 1], the microsomal CLint at 1 μM in [1] came to 170 µL/min/mg; in [2], 82.7 µL/min/mg; in data set [3], 189 µL/min/mg. Moreover, the half-life at 1 μM in data set [1] is 8.17 min; in data set [2] it was 16.8 min; in data set [3] it was 7.35 min. The “% Remaining(45 min)” value in data set [1] came out at 4.24%; in data set [2], 16.15%; in data set [3] it was 3.30%. For the same compound, the IC50 on TRKa is 0.62 nM; on TRKA(G595R) it was 2.5 nM; in the data set on Ba/F3 LMNA-NTRK1-G595R (BaF3, 72 h), 13 nM; in the data set on Ba/F3 LMNA-NTRK1-G667C (BaF3, 72 h), 5.9 nM; in the data set on Ba/F3 EVT6-NTRK3-G623R (BaF3, 72 h), 190 nM; at TRKC(G623R) it was 3.7 nM.

Regarding `C[C@H]1Nc2ccn3ncc(c3n2)C(=O)N[C@H]2C[C@H](C2)Oc2ncccc21` [Example 4, (3^1S,3^3S,6^3E,6^4E,8R)-8-methyl-2-oxo-4,7-diaza-6(3,5)-pyrazolo[1,5-a]pyrimidine-1(2,3)-pyridine-3(1,3)-cyclobutylcyclooctane-5-one], the IC50 on TRKa is 320 nM; on TRKA(G595R), more than 1000 nM; in the data set on Ba/F3 LMNA-NTRK1-G595R (BaF3, 72 hours, CTG) it was more than 1000 nM; in the data set on Ba/F3 LMNA-NTRK1-G667C (BaF3, 72 hours, CTG), more than 1000 nM; with Ba/F3 EVT6-NTRK3-G623R (BaF3, 72 hours, CTG), more than 1000 nM; at TRKC(G623R), more than 1000 nM.

Regarding `C[C@H]1Nc2nc3c(cnn3cc2F)C(=O)NC2CC(C2)Oc2ncccc21` [Example 5, (3^1S,3^3S,6^3E,6^4E,8R)-6^6-fluoro-8-methyl-2-oxo-4,7-diaza-6(3,5)-pyrazolo[1,5-a]pyrimidine-1(2,3)-pyridine-3(1,3)-cyclobutylcyclooctane-5-one], the IC50 at TRKa was 127 nM; at TRKA(G595R), 561 nM; with Ba/F3 LMNA-NTRK1-G595R (BaF3, 72 hours, CTG), more than 1000 nM; in the data set on Ba/F3 LMNA-NTRK1-G667C (BaF3, 72 hours, CTG) it was more than 1000 nM; in the data set with Ba/F3 EVT6-NTRK3-G623R (BaF3, 72 hours, CTG), more than 1000 nM; at TRKC(G623R) it was more than 1000 nM.

On to `C[C@H]1Nc2ccn3nc(F)c(c3n2)C(=O)N[C@H]2C[C@H](C2)Oc2ncc(F)cc21` [Example 6, (3^1S,3^3S,6^3Z,6^4E,8R)-1^5,6^2-difluoro-8-methyl-2-oxo-4,7-diaza-6(3,5)-pyrazolo[1,5-a]pyrimidine-1(2,3)-pyridine-3(1,3)-cyclobutylcyclooctane-5-one], for which the IC50 on TRKa is 0.52 nM; at TRKA(G595R), 2.9 nM; with Ba/F3 LMNA-NTRK1-G595R (BaF3, 72 hours, CTG), 116 nM; with Ba/F3 LMNA-NTRK1-G667C (BaF3, 72 hours, CTG) it was 40 nM; with Ba/F3 EVT6-NTRK3-G623R (BaF3, 72 hours, CTG), 536 nM; on TRKC(G623R) it was 8.2 nM.

Take `C[C@@H]1CCc2ncc(F)cc2[C@H]2CCCN2c2ccn3ncc(c3n2)C(=O)N1` [LOXO-195, reference compound]: the CLint in data set [1] turned out to be 82.65 µL/min/mg. Also, the half-life at 1 μM in [1] amounted to 16.8 min; in [2], 7.45 min; in data set [3], 9.12 min. Also, the “% Remaining(45 min)” value in [1] stood at 16.23%; in [2], 1.98%; in data set [3] it was 4.88%. For the same compound, the microsomal CLint at 1 μM in data set [2] came out at 186 µL/min/mg; in data set [3], 152 µL/min/mg. Moreover, the IC50 in the data set on Ba/F3 LMNA-NTRK1-G595R (BaF3, 72 hours, CTG) was 12 nM; with Ba/F3 LMNA-NTRK1-G667C (BaF3, 72 hours, CTG), 6.3 nM; in the data set with Ba/F3 EVT6-NTRK3-G623R (BaF3, 72 hours, CTG), 145 nM.
